Reference: patent US20240381872A1, “SUBSTITUTED 2,3-DIHYDRO[1,3]THIAZOLO[4,5-B]PYRIDINES, SALTS THEREOF AND THEIR USE AS HERBICIDALLY ACTIVE SUBSTANCES” (BAYER AKTIENGESELLSCHAFT, priority 2021, published 2024)

Columns and labels:
Type in all cases: in vivo
[1] = tested on: Kochia scoparia (KCHSC); assay: Herbicidal pre-emergence action, section A (Table A4); settings: visual grading after ca. 3 weeks vs untreated controls; for pre-emergence activity against KCHSC in % / pest or weed control at 1280 g/ha: application rate 1280 g/ha; for pest or weed control at 320 g/ha / pest or weed control at 1280 g/ha: Bassia scoparia, pre-emergence, 504 h, read-out: pre-emergence activity against KCHSC in %; for pest or weed control at 320 g/ha: application rate 320 g/ha
How it was run: (§1)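 Percent herbicidal effect relative to untreated plants (0% = as control, 100% = died off) scored visually about 3 weeks after treatment. Compounds formulated as WP or EC were sprayed at 600 L/ha with 0.5% additive onto covering soil of freshly sown sandy-loam pots, then kept under greenhouse conditions.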

[2] = tested on: Echinochloa crus-galli (ECHCG); assay: Herbicidal pre-emergence action, section A (Table A3); settings: visual grading after ca. 3 weeks vs untreated controls; for pre-emergence activity against ECHCG in % / pest or weed control at 320 g/ha: application rate 320 g/ha; for pest or weed control at 320 g/ha / pest or weed control at 1280 g/ha: Echinochloa crus-galli, pre-emergence, 504 h, read-out: pre-emergence activity against ECHCG in %; for pest or weed control at 1280 g/ha: application rate 1280 g/ha
How it was run: as §1

[3] = tested on: Lolium rigidum (LOLRI); assay: Herbicidal pre-emergence action, section C (Table C5); settings: visual grading after ca. 3 weeks
Source text: (§2) Seeds of mono- and dicotyledonous weed plants and crop plants were sown, in plastic or organic planting pots, in sandy loam and covered with soil. The compounds according to the invention, formulated in the form of wettable powders (WP) or as emulsifiable concentrates (EC), were applied to the surface of the covering soil as aqueous suspension or emulsion, with the addition of 0.5% of an additive, at an application rate of 600 l of water/ha (converted). Following treatment, the pots were placed in a greenhouse and kept under optimum growth conditions for the test plants. The visual grading of the damage to the test plants was carried out after ca. 3 weeks in comparison to untreated controls (herbicidal effect in percent (%): 100% effect=plants have died off, 0% effect=as control plants).

[4] = tested on: Setaria viridis (SETVI); assay: Herbicidal post-emergence action, section B (Table B8); settings: visual rating about 3 weeks after treatment vs untreated controls; for post-emergence activity against SETVI in % / pest or weed control at 1280 g/ha: application rate 1280 g/ha
How it was run: (§3)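 Weeds were sown in sandy loam and grown in a greenhouse, then sprayed at the one-leaf stage 2 to 3 weeks after sowing. Compounds, formulated as WP or EC, went on as aqueous suspension or emulsion with 0.5% additive at 600 liters per hectare. Visual rating after about 3 weeks against untreated controls (100% = plants dead, 0% = like controls).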

[5] = tested on: Stellaria media (STEME); assay: Herbicidal pre-emergence action, section A (Table A9); settings: for pre-emergence activity against STEME in % / pest or weed control at 1280 g/ha: application rate 1280 g/ha; for pest or weed control at 1280 g/ha / pest or weed control at 320 g/ha: Stellaria media, 504 h, read-out: pre-emergence activity against STEME in %; for pest or weed control at 320 g/ha: application rate 320 g/ha
How it was run: as §1

[6] = tested on: Veronica persica (VERPE); assay: Herbicidal pre-emergence action, section A (Table A10); settings: for pre-emergence activity against VERPE in % / pest or weed control at 1280 g/ha: application rate 1280 g/ha; for pest or weed control at 320 g/ha / pest or weed control at 1280 g/ha: Veronica persica, 504 h, read-out: pre-emergence activity against VERPE in %; for pest or weed control at 320 g/ha: application rate 320 g/ha
How it was run: as §1

[7] = tested on: Echinochloa crus-galli (ECHCG); assay: Herbicidal pre-emergence action, section C (Table C3); settings: visual grading after ca. 3 weeks vs untreated controls; for pre-emergence activity against ECHCG in % / pest or weed control at 320 g/ha: application rate 320 g/ha; for pest or weed control at 320 g/ha / pest or weed control at 80 g/ha: Echinochloa crus-galli, pre-emergence, 504 h, read-out: pre-emergence activity against ECHCG in %; for pest or weed control at 80 g/ha: application rate 80 g/ha
How it was run: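 Pre-emergence greenhouse test: visual percent damage scored about 3 weeks after treatment, relative to untreated pots (100% = dead, 0% = no effect). Formulated compounds (WP or EC, plus 0.5% additive) were applied in 600 l water/ha to the covering soil over seeds sown in sandy loam.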

[8] = tested on: Veronica persica (VERPE); assay: Herbicidal post-emergence action, section B (Table B10); settings: visual rating about 3 weeks after treatment vs untreated controls; for post-emergence activity against VERPE in %: application rate 1280 g/ha; for pest or weed control at 320 g/ha: Veronica persica, post-emergence, 504 h, application rate 320 g/ha, read-out: post-emergence activity against VERPE in %
How it was run: as §3

[9] = tested on: Poa annua (POAAN); assay: Herbicidal post-emergence action, section B (Table B7); settings: visual rating about 3 weeks after treatment vs untreated controls; for pest or weed control at 320 g/ha / pest or weed control at 1280 g/ha: Poa annua, post-emergence, 504 h, read-out: post-emergence activity against POAAN in %
How it was run: as §3

[10] = tested on: Polygonum convolvulus (POLCO); assay: Herbicidal pre-emergence action, section C (Table C7); settings: visual grading after ca. 3 weeks; for pest or weed control at 80 g/ha / pest or weed control at 320 g/ha: Fallopia convolvulus, pre-emergence, 504 h, read-out: pre-emergence activity against POLCO in %; for pest or weed control at 80 g/ha: application rate 80 g/ha
Source text: as §2

[11] = tested on: Alopecurus myosuroides (ALOMY); assay: Herbicidal pre-emergence action, section A (Table A2); settings: application rate 1280 g/ha, visual grading after ca. 3 weeks vs untreated controls; for pest or weed control at 1280 g/ha: Alopecurus myosuroides, pre-emergence, 504 h, read-out: pre-emergence activity against ALOMY in %
How it was run: as §1

[12] = tested on: Veronica persica (VERPE); assay: Herbicidal post-emergence action, section E (Table E9); settings: visual assessment ca. 3 weeks after spraying
Source text: Seeds of mono- and dicotyledonous weed plants and crop plants were sown, in plastic or organic planting pots, in sandy loam, covered with soil and grown in a greenhouse under controlled growth conditions. 2 to 3 weeks after sowing, the test plants were sprayed in the single-leaf stage. The compounds according to the invention, formulated in form of wettable powders (WP) or as emulsifiable concentrates (EC), were sprayed onto the green plant parts as aqueous suspension or emulsion, with the addition of 0.5% of an additive, at an application rate of 600 l of water/ha (converted). The test plants were placed in the greenhouse for ca. 3 weeks under optimum growth conditions, and then the effect of the preparations was assessed visually in comparison with untreated controls (herbicidal effect in percent (%): 100% effect=plants have died off, 0% effect=as control plants).

[13] = tested on: Veronica persica (VERPE); assay: Herbicidal pre-emergence action, section C (Table C10); settings: Veronica persica, pre-emergence, 504 h, visual grading after ca. 3 weeks, read-out: pre-emergence activity against VERPE in %; for pest or weed control at 80 g/ha: application rate 80 g/ha; for pest or weed control at 320 g/ha: application rate 320 g/ha
Source text: as §2

[14] = Setaria viridis, post-emergence, 504 h, read-out: post-emergence activity against SETVI in %
[15] = Lolium rigidum, pre-emergence, 504 h, application rate 320 g/ha, read-out: pre-emergence activity against LOLRI in %
[16] = Veronica persica, 504 h, application rate 320 g/ha, read-out: post-emergence activity against VERPE in %

Compound | pest or weed control at 320 g/ha [2] | pest or weed control at 1280 g/ha [4, 14] | pest or weed control at 320 g/ha [6] | pest or weed control at 320 g/ha [7] | pest or weed control at 80 g/ha [10] | pest or weed control at 1280 g/ha [11] | pest or weed control at 320 g/ha [8] | pest or weed control at 320 g/ha ([9]; application rate 320 g/ha) | pest or weed control at 320 g/ha [3, 15] | pest or weed control at 320 g/ha ([10]; application rate 320 g/ha) | pest or weed control at 320 g/ha [12, 16] | pest or weed control at 80 g/ha [13] | pest or weed control at 320 g/ha [5] | pest or weed control at 320 g/ha [13] | pest or weed control at 1280 g/ha [1] | pest or weed control at 80 g/ha [7] | also measured
BN1CSc2cc(Br)c(-c3ccccc3C)nc21 [Example I-011] |  |  |  |  |  |  |  |  |  |  |  |  |  |  |  |  | pre-emergence activity against KCHSC in % [1]: 90%; pre-emergence activity against ECHCG in % [2]: 100%; pre-emergence activity against LOLRI in % ([3]; application rate 320 g/ha): 100%; post-emergence activity against SETVI in % [4]: 90%; pre-emergence activity against STEME in % [5]: 100%; pre-emergence activity against VERPE in % [6]: 90%; pre-emergence activity against ECHCG in % [7]: 100%; post-emergence activity against VERPE in % [8]: 90%; post-emergence activity against POAAN in % ([9]; application rate 1280 g/ha): 90%
Clc1ccccc1-c1nc2c(cc1Br)SCN2 [Example I-041, 6-bromo-5-(2-chlorophenyl)-2,3-dihydro[1,3]thiazolo[4,5-b]pyridine] | 100% | 90% | 90% | 100% | 80% | 90% | 90% | 90% |  |  |  |  |  |  |  |  | pest or weed control at 320 g/ha [1]: 90%; pest or weed control at 1280 g/ha [5]: 100%
CCc1ccccc1-c1nc2c(cc1C)[S+]([O-])CN2 (stereo not shown) [Example I-047] | 100% |  |  |  |  |  | 90% | 90% | 100% | 80% | 80% | 80% |  |  |  |  | pest or weed control at 1280 g/ha [5]: 90%
CC(=O)N1CSc2cc(Br)c(-c3ccccc3Cl)nc21 [Example I-055, 1-[6-bromo-5-(2-chlorophenyl)[1,3]thiazolo[4,5-b]pyridin-3(2H)-yl]ethanone] |  | 90% | 90% | 100% |  | 90% |  |  | 90% | 80% |  |  | 90% | 80% |  |  | pest or weed control at 320 g/ha [1]: 90%; pest or weed control at 1280 g/ha [2]: 100%
CCS(=O)(=O)N1CSc2cc(C)c(-c3ccccc3F)nc21 [Example I-060, 3-(ethylsulfonyl)-5-(2-fluorophenyl)-6-methyl-2,3-dihydro[1,3]thiazolo[4,5-b]pyridine] |  |  |  |  | 80% | 90% | 90% |  |  |  |  | 90% | 90% |  | 100% | 100% | pest or weed control at 1280 g/ha [2]: 100%; pest or weed control at 80 g/ha ([3]; Lolium rigidum, pre-emergence, 504 h, application rate 80 g/ha, read-out: pre-emergence activity against LOLRI in %): 100%; pest or weed control at 320 g/ha ([4]; Setaria viridis, post-emergence, 504 h, application rate 320 g/ha, read-out: post-emergence activity against SETVI in %): 90%; pest or weed control at 1280 g/ha [6]: 90%; pest or weed control at 1280 g/ha ([9]; application rate 1280 g/ha): 90%; pest or weed control at 80 g/ha ([12]; Veronica persica, 504 h, application rate 80 g/ha, read-out: post-emergence activity against VERPE in %): 80%
CC(C)C(=O)N1C[S+]([O-])c2cc(Br)c(-c3ccccc3)nc21 (stereo not shown) [Example I-067] |  |  |  |  | 90% |  |  |  | 80% |  | 90% |  |  | 80% |  | 90% | 
CCS(=O)(=O)N1C[S+]([O-])c2cc(C)c(-c3ccccc3C)nc21 (stereo not shown) [Example I-074] | 100% | 90% | 90% |  |  | 90% | 90% | 90% |  | 90% | 90% | 80% | 90% |  | 100% | 100% | 
Cc1cc2c(nc1-c1ccccc1)N(C(=O)C1(C)CC(Cl)=NO1)CS2 (stereo not shown) [Example I-088] |  |  |  |  |  |  |  |  |  |  |  |  |  |  |  |  | pre-emergence activity against KCHSC in % [1]: 90%; pre-emergence activity against ECHCG in % [2]: 100%; post-emergence activity against SETVI in % [4]: 90%; pre-emergence activity against STEME in % [5]: 90%; pre-emergence activity against VERPE in % [6]: 90%; pre-emergence activity against ECHCG in % [7]: 100%; pre-emergence activity against POLCO in % ([10]; application rate 320 g/ha): 90%; pre-emergence activity against ALOMY in % [11]: 100%; post-emergence activity against VERPE in % [8]: 90%; post-emergence activity against POAAN in % ([9]; application rate 320 g/ha): 90%; post-emergence activity against VERPE in % ([12]; application rate 320 g/ha): 80%
CC1(C(=O)N2CSc3cc(Br)c(-c4ccccc4Cl)nc32)CC(Cl)=NO1 (stereo not shown) [Example I-141, [6-bromo-5-(2-chlorophenyl)[1,3]thiazolo[4,5-b]pyridin-3(2H)-yl](3-chloro-5-methyl-4,5-dihydro-1,2-oxazol-5-yl)methanone] | 100% |  |  | 100% |  | 90% |  |  |  | 80% | 80% |  | 90% | 90% | 100% |  | pest or weed control at 1280 g/ha [6]: 90%; pest or weed control at 1280 g/ha ([9]; application rate 1280 g/ha): 90%
